Where a name gives a salt, the structure may show the parent alone.

In series [1] the target is PARP-1 FL (Homo sapiens, UniProt P09874). The experiment in a line: Fluorescence polarization probe displacement assay. As to conditions: for DC50: half maximal displacement concentration. In kind it is binding.
Experimental: (§1) Affinity of the tested compounds and their selectivity with respect to the different PARP isoforms of interest was quantified in a displacement assay.
(§2) In all of the experiments, the polarization signal was measured using a Saphire2 plate reader (Tecan). Data analysis was performed using Dynafit software. In particular, titration data were fitted to the following equilibria: Enzyme+probe <==> Complex Enzyme-probe, while displacement data were fitted to the following equilibria: Enzyme+probe <==> Complex Enzyme-probe, Enzyme+Compound <==> Complex Enzyme-Compound, whereby binding of probe and compound on the enzyme are mutually exclusive (pure competitive mechanism). Displacement data were also fitted using Excel spreadsheet (Microsoft Inc. Seattle, USA) to a four parameter logistic model (4PL), or Hill-Slope model to calculate DC50s where the DC50 value represents the compound concentration at which the polarization signal is diminished by 50% compared to untreated controls.
(§3) In agreement, affinity binding constants (KD) were determined by fitting with a pure competitive mechanism. KD values are the average of three independent experiments.
Series [2] has as its target PARP-2 FL (Homo sapiens, UniProt Q9UGN5). The experiment in a line: Fluorescence polarization probe displacement assay. The conditions noted are these: for DC50: compound P1 as the probe. In kind it is binding.
Experimental: as §1, §2, §3
Series [3] has as its system hydrogen peroxide induced PAR formation in HeLa cells. The series is described as follows: Cellular PAR assay (inhibition of hydrogen peroxide induced PAR formation). In kind it is cell-based. As to conditions: Homo sapiens, 0.1 mM hydrogen peroxide 15 min.
Experimental: Compounds potencies were evaluated by measuring the inhibition of poly (ADP-ribose) (PAR) chains formation as a marker for PARP-1 inhibition.
Cellular activity of PARP-1 inhibitors was assessed by measuring the inhibition of the hydrogen peroxide induced PAR formation in HeLa cells (ECACC). Cellular PAR levels were measured by immunocytochemistry and quantified using an ArrayScan vTi instrument (Cellomics Thermo Scientific).
Studies were performed as follows: 6000 cells/well were seeded in 96 well plates (Perkin Elmer) in MEM/10% FCS and incubated for 24 hours at 37° C., 5% carbon dioxide. Test compounds were then added at the required concentration for 30′. […] Concentration curves were prepared in MEM/10% FCS from compound stocks in DMSO and final DMSO concentration was 0.002% (v/v). Duplicate wells for each concentration point were prepared with a typical highest compound concentration of 20 μM and serial dilution 1:3. […] Non-specific binding sites were blocked by incubating wells for 30 min in PBS containing 5% (w/v) FBS 0.05% tween20. […] After washing further 3 times in PBS, cellular PAR immunoreactivity was assessed using the ArrayScan vTi instrument, with a Zeiss 10×0.5 N.A. objective, and applying the Cytotoxicity.V3 algorithm (Cellomics/Thermo Fisher) with a XF100 filter. At least 10 fields, corresponding to at least 900 cells, were read for each well.
The following formula is used: IC50=Bottom+(Top−Bottom)/(1+10^((Log EC50−X))); X is the logarithm of concentration. IC50 is the response; IC50 starts at Bottom and goes to Top with a sigmoid shape.
In series [4] the target is T1, PARP-3 FL (Homo sapiens, UniProt Q9Y6F1).
T1 sequence (Q9Y6F1 1-533): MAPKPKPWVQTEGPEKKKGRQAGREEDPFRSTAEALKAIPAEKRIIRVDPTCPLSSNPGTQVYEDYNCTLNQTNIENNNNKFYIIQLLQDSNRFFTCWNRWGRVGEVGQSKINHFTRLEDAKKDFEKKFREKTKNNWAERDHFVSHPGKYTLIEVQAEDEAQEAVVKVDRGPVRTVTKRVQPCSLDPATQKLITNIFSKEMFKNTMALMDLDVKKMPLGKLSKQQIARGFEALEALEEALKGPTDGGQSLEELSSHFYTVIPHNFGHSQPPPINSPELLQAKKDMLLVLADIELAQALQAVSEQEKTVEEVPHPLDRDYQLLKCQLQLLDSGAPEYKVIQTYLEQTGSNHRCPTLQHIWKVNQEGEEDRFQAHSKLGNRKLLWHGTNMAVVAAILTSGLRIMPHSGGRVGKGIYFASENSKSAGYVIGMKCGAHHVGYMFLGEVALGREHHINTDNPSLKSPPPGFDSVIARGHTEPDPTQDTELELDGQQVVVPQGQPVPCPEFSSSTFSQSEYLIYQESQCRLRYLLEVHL
The series is described as follows: Fluorescence polarization probe displacement assay. In kind it is binding. As to conditions: compound P1 as the probe.
Experimental: as §1, §2, §3

The nature of series [5]: Pharmacokinetics and oral bioavailability in the mouse. In kind it is in vivo.
Experimental: The compounds were formulated in 10% tween 80/dextrose for intravenous bolus administration while oral administrations were performed using the compounds formulated in 0.5% methylcellulose. A single administration at the dose of 10 mg/kg was given and three male animals for each route were used. […] Plasma samples were prepared by plasma proteins precipitation adding 200 µl of methanol to 10 µl of plasma in a 96 well plate. […] The supernatant was considered as final extract and injected onto the LC-MS-MS system (HPLC system: Hewlett Packard 1100 series using Atlantis HILIC Silica 50*2.1 mm 5.0 μM analytical column; MS instrument: Perkin Elmer SCIEX API 2000 and ionization performed with Turbo Ion Spray in positive ion mode). Lower limit of quantification is 5.0 ng/ml, upper limit of quantification is 10000 ng/ml. […] Non-compartmental method (linear trapezoidal rule and linear regression analysis of natural log-transformed plasma concentrations vs. time data) was used. After intravenous dosing, C0 was set equal to C0.083, Absolute bioavailability (F) was calculated from the ratio of average oral to IV (intravenous) dose-normalized plasma AUC (area under curve) values.

Sequence of PARP-1 FL (P09874 whole entry): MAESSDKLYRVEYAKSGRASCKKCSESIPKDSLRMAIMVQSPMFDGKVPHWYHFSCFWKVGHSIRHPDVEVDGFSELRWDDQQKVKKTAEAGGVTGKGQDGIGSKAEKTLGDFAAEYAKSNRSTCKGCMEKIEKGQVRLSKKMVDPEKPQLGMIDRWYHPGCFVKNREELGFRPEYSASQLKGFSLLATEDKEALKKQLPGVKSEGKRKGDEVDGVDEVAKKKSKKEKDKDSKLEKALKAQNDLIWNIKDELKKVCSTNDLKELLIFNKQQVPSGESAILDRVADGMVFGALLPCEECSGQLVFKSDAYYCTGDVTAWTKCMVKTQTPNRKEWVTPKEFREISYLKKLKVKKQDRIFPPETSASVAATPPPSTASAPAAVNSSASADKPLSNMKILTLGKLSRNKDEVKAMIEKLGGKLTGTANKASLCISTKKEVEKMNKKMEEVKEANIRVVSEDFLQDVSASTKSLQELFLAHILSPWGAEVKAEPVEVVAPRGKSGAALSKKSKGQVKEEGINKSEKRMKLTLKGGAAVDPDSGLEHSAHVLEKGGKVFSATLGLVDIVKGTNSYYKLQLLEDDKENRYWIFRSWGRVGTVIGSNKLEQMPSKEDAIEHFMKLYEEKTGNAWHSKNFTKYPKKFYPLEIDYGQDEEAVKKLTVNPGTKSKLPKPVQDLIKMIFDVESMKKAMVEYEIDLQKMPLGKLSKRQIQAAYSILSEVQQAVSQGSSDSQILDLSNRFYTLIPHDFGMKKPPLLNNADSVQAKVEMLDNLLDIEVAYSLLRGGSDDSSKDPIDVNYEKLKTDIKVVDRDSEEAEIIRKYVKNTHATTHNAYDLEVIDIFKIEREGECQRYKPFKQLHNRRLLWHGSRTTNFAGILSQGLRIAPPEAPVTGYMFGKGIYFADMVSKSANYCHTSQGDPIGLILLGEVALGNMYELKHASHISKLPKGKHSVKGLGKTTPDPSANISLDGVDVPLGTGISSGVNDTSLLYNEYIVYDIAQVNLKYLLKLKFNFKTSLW
Sequence of PARP-2 FL (Q9UGN5 whole entry): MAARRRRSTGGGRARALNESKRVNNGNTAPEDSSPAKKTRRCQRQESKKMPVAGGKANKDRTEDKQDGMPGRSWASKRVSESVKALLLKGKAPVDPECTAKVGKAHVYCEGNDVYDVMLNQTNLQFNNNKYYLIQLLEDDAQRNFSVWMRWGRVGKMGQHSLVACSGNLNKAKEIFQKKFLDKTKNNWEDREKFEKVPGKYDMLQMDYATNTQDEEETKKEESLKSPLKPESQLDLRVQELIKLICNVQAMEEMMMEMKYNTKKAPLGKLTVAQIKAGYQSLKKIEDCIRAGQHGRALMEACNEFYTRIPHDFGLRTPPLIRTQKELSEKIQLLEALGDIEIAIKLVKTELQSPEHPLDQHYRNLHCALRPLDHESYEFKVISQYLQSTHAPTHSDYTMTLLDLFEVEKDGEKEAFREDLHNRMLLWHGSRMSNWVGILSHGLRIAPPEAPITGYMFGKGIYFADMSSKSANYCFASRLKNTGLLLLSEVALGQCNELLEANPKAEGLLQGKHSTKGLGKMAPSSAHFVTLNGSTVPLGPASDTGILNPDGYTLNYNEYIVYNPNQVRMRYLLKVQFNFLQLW

For the compound `O=c1[nH]c(-c2ccccc2)c(OCCCN2CCNCC2)c2ccccc12` [Compound 14, 3-Phenyl-4-(3-piperazin-1-yl-propoxy)-2H-isoquinolin-1-one di-hydrochloride], the Kd in series [1] is below 0.03 µM; in series [2], 6.13 µM. Further, the DC50 in series [1] is below 0.25 µM; in series [2] it was 4.29 µM. This compound yielded an IC50 in series [3] of 4.2 µM.

As to `CN1CCN(CCCOc2c(-c3ccccc3)[nH]c(=O)c3ccccc23)CC1` [Compound 20, 4-[3-(4-Methyl-piperazin-1-yl)-propoxy]-3-phenyl-2H-isoquinolin-1-one di hydrochloride], the figures for the Kd in series [1] and in series [2] were 0.05 µM and 5.35 µM, respectively. Further, the DC50 was below 0.25 µM in series [1] and 5.52 µM in series [2]. For the same compound, the IC50 in series [3] was determined as 6.5 µM.

Turning to `O=c1[nH]c(-c2ccccc2)c(OC2CCNCC2)c2ccc(F)cc12` [Compound 85, 7-fluoro-3-phenyl-4-(piperidin-4-yloxy)isoquinolin-1(2H)-one hydrochloride], the DC50 in series [1] came out at 0.38 µM; in series [2] it was 4.35 µM; in series [4], 0.54 µM.

For the compound `CN(C)CCOc1c(-c2ccccc2)[nH]c(=O)c2ccccc12` [Compound 17, 4-(2-Dimethylamino-ethoxy)-3-phenyl-2H-isoquinolin-1-one], in series [1], the Kd was below 0.03 µM and the DC50 is below 0.25 µM. Besides, in series [2], the Kd amounted to 1.01 µM and the DC50 stood at 3.28 µM. The compound also displayed an IC50 in series [3] of 0.34 µM.

In series [1], `NCCCOc1c(-c2ccccc2)[nH]c(=O)c2ccccc12` [Compound 3, 4-(3-Amino-propoxy)-3-phenyl-2H-isoquinolin-1-one hydrochloride] yielded a Kd below 0.03 µM and a DC50 below 0.25 µM. In addition, in series [2], binding was characterised by a dissociation constant (Kd) of 3.92 µM and the DC50 came to 4.1 µM. In series [3], this compound displayed an IC50 of 3.26 µM.

In series [1], `CCN(CC)CCCOc1c(-c2ccccc2)[nH]c(=O)c2ccccc12` [Compound 18, 4-(3-Diethylamino-propoxy)-3-phenyl-2H-isoquinolin-1-one hydrochloride] showed a Kd below 0.03 µM and a DC50 below 0.25 µM. The compound further came in with a Kd in series [2] of 8.65 µM. This compound returned an IC50 in series [3] of 0.85 µM.

In the case of `NC(=O)c1cccc(N)c1` [Compound 3-AB, 3-aminobenzamide, reference compound], the “Displacement of the probe (compound P1 or compound P3)” value in series [1] (from all of the tested PARP isoforms) is on record as “fully displaced”.

For the compound `COc1cccc(-c2[nH]c(=O)c3ccccc3c2OCCN2CCCCC2)c1` [Compound 9, 3-(3-Methoxy-phenyl)-4-(2-piperidin-1-yl-ethoxy)-2H-isoquinolin-1-one], the figures for the DC50 in series [1] and in series [2] were 0.37 µM and 0.86 µM, respectively.

Regarding `O=c1[nH]c(-c2ccccc2)c(OCCCN2CCCCC2)c2ccc(F)cc12` [Compound 38, 7-Fluoro-3-phenyl-4-(3-piperidin-1-yl-propoxy)-2H-isoquinolin-1-one], the DC50 is below 0.25 µM in series [1] and 3.78 µM in series [2]. The IC50 in series [3] turned out to be 0.3 µM.

The compound `NCCOc1c(-c2ccsc2)[nH]c(=O)c2ccccc12` [Compound 29, 4-(2-Amino-ethoxy)-3-thiophen-3-yl-2H-isoquinolin-1-one hydrochloride] had a Kd in series [1] below 0.03 µM. Further, the DC50 was below 0.25 µM in series [1], 0.54 µM in series [2] and 0.2 µM in series [4].

`O=c1[nH]c(-c2ccccc2)c(OCCCN2CCCCC2)c2ccc(Cl)cc12` [Compound 37, 7-Chloro-3-phenyl-4-(3-piperidin-1-yl-propoxy)-2H-isoquinolin-1-one] returned a DC50 in series [1] below 0.25 µM. Besides, in series [3], inhibition was half-maximal at 0.62 µM (IC50).

For `CC(=O)N1CCN(CCOc2c(-c3ccccc3)[nH]c(=O)c3ccccc23)CC1` [Compound 7, 4-[2-(4-Acetyl-piperazin-1-yl)-ethoxy]-3-phenyl-2H-isoquinolin-1-one], in series [1], the Kd is below 0.03 µM and the DC50 is below 0.25 µM. In series [2], this compound yielded a Kd above 10 µM and a DC50 above 10 µM.

In series [1], `COc1cccc(-c2[nH]c(=O)c3ccccc3c2OCCCN2CCCCC2)c1` [Compound 10, 3-(3-Methoxy-phenyl)-4-(3-piperidin-1-yl-propoxy)-2H-isoquinolin-1-one] yielded a Kd of 0.05 µM and a DC50 of 0.35 µM. The compound further yielded a Kd in series [2] of 4.39 µM. Further, in series [3], half-maximal inhibition (IC50) required 0.33 µM.

Consider `CNCCOc1c(-c2ccccc2)[nH]c(=O)c2ccccc12` [Compound 16, 4-(2-Methylamino-ethoxy)-3-phenyl-2H-isoquinolin-1-one], for which, in series [1], the Kd is below 0.03 µM and the DC50 was below 0.25 µM. The Kd in series [2] was 2.44 µM. In series [3], this compound came in with an IC50 of 0.48 µM.

For the compound `O=c1[nH]c(-c2ccccc2)c(OCCCN2CCCCC2)c2ccccc12` [Compound 5, 3-Phenyl-4-(3-piperidin-1-yl-propoxy)-2H-isoquinolin-1-one trifluoroacetate], in series [1], the Kd was below 0.03 µM and the DC50 was below 0.25 µM. In series [2], this compound gave a Kd of 4.59 µM and a DC50 of 4.34 µM. The compound also showed a concentration for half-maximal inhibition (IC50) in series [3] of 1.44 µM.

In series [1], `NCCCCOc1c(-c2ccccc2)[nH]c(=O)c2ccccc12` [Compound 22, 4-(4-Amino-butoxy)-3-phenyl-2H-isoquinolin-1-one hydrochloride] had a Kd below 0.03 µM and a DC50 below 0.25 µM. In series [2], this compound yielded a Kd of 1.34 µM and a DC50 of 4.08 µM. For the same compound, the IC50 in series [3] came to 9.5 µM.

In series [1], `O=c1[nH]c(-c2ccccc2)c(OCCCN2CCCC2)c2ccccc12` [Compound 21, 3-Phenyl-4-(3-pyrrolidin-1-yl-propoxy)-2H-isoquinolin-1-one] registered a Kd of 0.04 µM and a DC50 below 0.25 µM. In series [2], this compound yielded a Kd of 1.36 µM and a DC50 of 1.58 µM. This compound displayed an IC50 in series [3] of 8.3 µM.

Turning to `CC(=O)NCCOc1c(-c2ccccc2)[nH]c(=O)c2ccccc12` [Compound 2, N-[2-(1-Oxo-3-phenyl-1,2-dihydro-isoquinolin-4-yloxy)-ethyl]-acetamide], in series [1], the Kd was determined as 0.2 µM and the DC50 worked out at 0.32 µM. In series [2], this compound registered a Kd of 6.28 µM. The compound also had an IC50 in series [3] of 6.72 µM.

In the case of `O=c1[nH]c(-c2ccccc2)c(OCCN2CCNCC2)c2ccccc12` [Compound 6, 3-Phenyl-4-(2-piperazin-1-yl-ethoxy)-2H-isoquinolin-1-one di-hydrochloride], in series [1], the Kd was below 0.03 µM and the DC50 was below 0.25 µM. In series [2], this compound displayed a Kd above 10 µM and a DC50 above 10 µM. In addition, the IC50 in series [3] is 0.86 µM.

On to `NCCOc1c(-c2ccccc2)[nH]c(=O)c2ccccc12` [Compound 1, 4-(2-Amino-ethoxy)-3-phenyl-2H-isoquinolin-1-one hydrochloride], for which, in series [1], the Kd was below 0.03 µM and the DC50 is below 0.25 µM. Moreover, in series [2], the Kd came to 3.07 µM and the DC50 turned out to be 2.89 µM. This compound registered an IC50 in series [3] of 0.79 µM.

In the case of `COc1ccc(-c2[nH]c(=O)c3ccccc3c2OCCCN2CCCCC2)cc1` [Compound 23, 3-(4-Methoxy-phenyl)-4-(3-piperidin-1-yl-propoxy)-2H-isoquinolin-1-one], in series [1], the Kd is below 0.03 µM and the DC50 is below 0.25 µM. This compound also displayed a DC50 in series [4] of 0.48 µM. In addition, the IC50 in series [3] amounted to 0.17 µM.

In series [1], `CNCCCOc1c(-c2ccccc2)[nH]c(=O)c2ccccc12.Cl` [Compound 12, 4-(3-Methylamino-propoxy)-3-phenyl-2H-isoquinolin-1-one hydrochloride] had a Kd of 0.05 µM and a DC50 below 0.25 µM. In series [2], this compound registered a Kd of 1.65 µM and a DC50 of 2.91 µM. This compound also came in with an IC50 in series [3] of 0.42 µM. In addition, the “F on AUC” value in series [5] (10 mg/kg, ratio of oral to IV dose-normalized plasma AUC) came to 17%. In addition, the clearance in series [5] (male, Balb Nu/Nu, plasma, 10 mg/kg intravenous bolus, mean value, read-out: CL(IV bolus)) worked out at 177 mL/min/kg. Also, in series [5] (male, Balb Nu/Nu, plasma, 10 mg/kg intravenous bolus, mean value, read-out: Vdss (IV bolus)), the Vd came to 3.3 L/kg. In addition, the AUC in series [5] (male, Balb Nu/Nu, plasma, 10 mg/kg oral, mean value) is 0.52 µM·h. Besides, in series [5] (male, Balb Nu/Nu, plasma, 10 mg/kg oral, mean value, read-out: T½ (oral) (converted)), the half-life was 1.19 h.

Regarding `CN1CCN(CCOc2c(-c3ccccc3)[nH]c(=O)c3ccccc23)CC1` [Compound 19, 4-[2-(4-Methyl-piperazin-1-yl)-ethoxy]-3-phenyl-2H-isoquinolin-1-one di hydrochloride], the Kd was below 0.03 µM in series [1] and 7.29 µM in series [2]. The DC50 in series [1] was below 0.25 µM.

In series [1], `CC(=O)NCCCOc1c(-c2ccccc2)[nH]c(=O)c2ccccc12` [Compound 4, N-[3-(1-Oxo-3-phenyl-1,2-dihydro-isoquinolin-4-yloxy)-propyl]-acetamide] came in with a Kd of 0.19 µM and a DC50 of 0.31 µM. In series [2], this compound yielded a Kd of 0.95 µM and a DC50 of 0.91 µM.

Consider `O=C(NCCCOc1c(-c2ccccc2)[nH]c(=O)c2ccccc12)c1ccccc1` [Compound 8, N-[3-(1-Oxo-3-phenyl-1,2-dihydro-isoquinolin-4-yloxy)-propyl]benzamide], for which the DC50 in series [1] is 0.82 µM; in series [2], 4.29 µM.
